According to PubChem BioAssay AID192 (DTP/NCI, 2004):
Values joined by “and” are separate entries in the source; they are usually repeats but may differ in a detail not shown here. Equal values may be shown once. Inconclusive results and toxic doses are left out. The calls were made as follows: active = survival T/C of 150% or more; inactive = T/C below 125% in these data.

Test system: BDF1 mice, B16 melanoma ip, median survival T/C
Test: NCI In Vivo Anticancer Drug Screen. Data for tumor model B16 Melanoma (intraperitoneal) in B6D2F1 (BDF1) mice
Settings: endpoint: median survival time, higher = longer survival
Summary of the method: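 Each result divides a survival or tumor-size measurement in the compound-treated group by the same measurement in the vehicle group.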

[1] = dose: 6.25 mg/kg/injection, schedule: Q01DX009 (ip), vehicle: saline
[2] = dose: 12.5 mg/kg/injection, schedule: Q01DX009 (ip), vehicle: saline
[3] = dose: 25.0 mg/kg/injection, schedule: Q01DX009 (ip), vehicle: saline
[4] = dose: 100.0 mg/kg/injection, schedule: Q01DX009 (ip), vehicle: Klucel (hydroxypropylcellulose) (HPC)
[5] = dose: 200.0 mg/kg/injection, schedule: Q01DX009 (ip), vehicle: Klucel (hydroxypropylcellulose) (HPC)
[6] = dose: 400.0 mg/kg/injection, schedule: Q01DX009 (ip), vehicle: Klucel (hydroxypropylcellulose) (HPC)
[7] = dose: 100.0 mg/kg/injection, schedule: Q01DX009 (ip), vehicle: saline with Tween-80
[8] = dose: 200.0 mg/kg/injection, schedule: Q01DX009 (ip), vehicle: saline with Tween-80
[9] = dose: 6.25 mg/kg/injection, schedule: Q01DX009 (ip), vehicle: Klucel (hydroxypropylcellulose) (HPC)
[10] = dose: 12.5 mg/kg/injection, schedule: Q01DX009 (ip), vehicle: Klucel (hydroxypropylcellulose) (HPC)
[11] = dose: 25.0 mg/kg/injection, schedule: Q01DX009 (ip), vehicle: saline with Tween-80
[12] = dose: 50.0 mg/kg/injection, schedule: Q01DX009 (ip), vehicle: saline with Tween-80
[13] = dose: 50.0 mg/kg/injection, schedule: Q01DX009 (ip), vehicle: Klucel (hydroxypropylcellulose) (HPC)
[14] = dose: 400.0 mg/kg/injection, schedule: Q01DX009 (ip), vehicle: saline with Tween-80
[15] = dose: 12.5 mg/kg/injection, schedule: Q01DX009 (ip), vehicle: saline with Tween-80

Measured: T/C

c1ccc(C[n+]2ccc3ccccc3c2)cc1
inactive: [1] 105 % of control and 113 % of control | dose: 6.25 mg/kg/injection, schedule: Q04DX003 (ip), vehicle: saline with Tween-80 95 % of control | [2] 117 % of control | dose: 12.5 mg/kg/injection, schedule: Q04DX003 (ip), vehicle: saline with Tween-80 107 % of control | [3] 108 % of control and 110 % of control | dose: 25.0 mg/kg/injection, schedule: Q04DX003 (ip), vehicle: saline with Tween-80 100 % of control

CCCCCCCCC(O)CCCC (stereo not given)
inactive: [4] 103 % of control | [5] 95 % of control | [6] 103 % of control

O=c1[nH]c(-c2ccccc2)c(-c2ccccc2)[nH]1
inactive: [7] 90 % of control | [8] 95 % of control

CCc1ccc(NC(=O)Nc2ccc(Cl)cc2)cc1
inactive: dose: 100.0 mg/kg/injection, schedule: Q01DX009 (ip), vehicle: gum acacia 89 % of control | dose: 200.0 mg/kg/injection, schedule: Q01DX009 (ip), vehicle: gum acacia 98 % of control | dose: 400.0 mg/kg/injection, schedule: Q01DX009 (ip), vehicle: gum acacia 93 % of control

COc1ccc2cc3[n+](cc2c1OC)CCc1cc2c(cc1-3)OCO2
inactive: dose: 1.5 mg/kg/injection, schedule: Q01DX009 (ip), vehicle: carboxymethylcellulose (CMC) 105 % of control | dose: 2.5 mg/kg/injection, schedule: Q01DX009 (ip), vehicle: Klucel (hydroxypropylcellulose) (HPC) 106 % of control | dose: 2.5 mg/kg/injection, schedule: Q01DX009 (ip), vehicle: saline with Tween-80 100 % of control | dose: 2.5 mg/kg/injection, schedule: Q02DX005 (ip), vehicle: Klucel (hydroxypropylcellulose) (HPC) 109 % of control | dose: 3.0 mg/kg/injection, schedule: Q01DX009 (ip), vehicle: carboxymethylcellulose (CMC) 96 % of control | dose: 3.12 mg/kg/injection, schedule: Q01DX009 (ip), vehicle: carboxymethylcellulose (CMC) 95 % of control | dose: 5.0 mg/kg/injection, schedule: Q01DX009 (ip), vehicle: Klucel (hydroxypropylcellulose) (HPC) 108 % of control | dose: 5.0 mg/kg/injection, schedule: Q01DX009 (ip), vehicle: saline with Tween-80 110 % of control | dose: 5.0 mg/kg/injection, schedule: Q02DX005 (ip), vehicle: Klucel (hydroxypropylcellulose) (HPC) 110 % of control | [9] 105 % of control | dose: 10.0 mg/kg/injection, schedule: Q01DX009 (ip), vehicle: saline with Tween-80 102 % of control | dose: 10.0 mg/kg/injection, schedule: Q02DX005 (ip), vehicle: Klucel (hydroxypropylcellulose) (HPC) 100 % of control | [10] 106 % of control

COC1OC2COC(c3ccccc3)OC2C(O)C1N (stereo not given)
inactive: [11] 95 % of control | dose: 33.0 mg/kg/injection, schedule: Q04DX003 (ip), vehicle: saline with Tween-80 91 % of control | [12] 95 % of control | dose: 75.0 mg/kg/injection, schedule: Q04DX003 (ip), vehicle: saline with Tween-80 93 % of control | [7] 90 % of control

c1ccc(Cc2ccccc2)cc1
inactive: [7] 89 % of control

O=C(O)CC(NC(=O)OCc1ccccc1)C(=O)OCc1ccccc1 (stereo not given)
inactive: [13] 118 % of control | [4] 89 % of control | [5] 92 % of control

COc1c2ccoc2nc2c(OC)c3c(cc12)OCO3
inactive: [9] 89 % of control | [10] 100 % of control | dose: 25.0 mg/kg/injection, schedule: Q01DX009 (ip), vehicle: Klucel (hydroxypropylcellulose) (HPC) 95 % of control | [13] 92 % of control

CCCCN=[N+]=[N-]
inactive: dose: 25.0 mg/kg/injection, schedule: Q01DX009 (ip), vehicle: water 104 % of control | dose: 50.0 mg/kg/injection, schedule: Q01DX009 (ip), vehicle: water 98 % of control | dose: 100.0 mg/kg/injection, schedule: Q01DX009 (ip), vehicle: water 100 % of control | dose: 200.0 mg/kg/injection, schedule: Q01DX009 (ip), vehicle: water 98 % of control

c1ccc(N/N=C2/c3ccccc3CC23OC3c2ccccc2)cc1 (stereo not given)
inactive: [13] 87 % of control | [4] 96 % of control | [6] 89 % of control

CC1=C(c2cc3ccccc3c3ccccc23)CCCC1
inactive: [7] 90 % of control | [8] 88 % of control | [14] 91 % of control

O=S(=O)(O)c1ccc(/C2=c3\cc/c([n-]3)=C(\c3ccc(S(=O)(=O)O)cc3)c3ccc([n-]3)/C(c3ccc(S(=O)(=O)O)cc3)=c3/cc/c([n-]3)=C(\c3ccc(S(=O)(=O)O)cc3)c3ccc2[n-]3)cc1.[Co]
inactive: dose: 3.13 mg/kg/injection, schedule: Q01DX009 (ip), vehicle: saline 111 % of control | [1] 107 % of control | [2] 108 % of control | [3] 101 % of control

Oc1cc(Br)ccc1C=Nc1ccc(N2CCCCC2)cc1
inactive: [4] 106 % of control | [5] 93 % of control | [6] 93 % of control

CC1(C)OC(CI)C(COS(C)(=O)=O)O1 (stereo not given)
inactive: [15] 97 % of control | [11] 97 % of control | [12] 96 % of control and 100 % of control

O=C(O)CC(NCc1ccccc1)C(=O)O (stereo not given)
inactive: [7] 97 % of control | [8] 102 % of control | [14] 100 % of control

C1CN2CCC1CC2
inactive: dose: 1.56 mg/kg/injection, schedule: Q01DX009 (ip), vehicle: saline with Tween-80 102 % of control | dose: 3.12 mg/kg/injection, schedule: Q01DX009 (ip), vehicle: saline with Tween-80 102 % of control | dose: 6.25 mg/kg/injection, schedule: Q01DX009 (ip), vehicle: saline with Tween-80 92 % of control and 99 % of control | [15] 86 % of control and 91 % of control | [11] 86 % of control and 91 % of control

C(=N\Nc1nn[nH]n1)/c1ccncc1
inactive: [4] 103 % of control | [5] 104 % of control
